Results as given in doi:10.1101/2023.12.19.571805v1 (biorxiv, 2023).
*1 amine or outer side, *2 acyl side, *3 side chain or, on linkers, in order; H or OH if unused. Where a SMILES comes first, the peptide text is derived from it. Bridges are numbered along the chain shown (N, C = ends). Roman numbers before positions name the chains, in order. [ ]: non-standard residue; d: D form. Actinocin(9to1) = Cc1c2oc3c(C)ccc(C(=O)[*:1])c3nc-2c(C(=O)[*:2])c(N)c1=O; NMeV = CN[C@H](C(=O)O)C(C)C; Sar = CNCC(=O)O

Target: T1, PhoR (PhoR-GFP) (Mycobacterium tuberculosis, UniProt P71815)
T1 sequence (P71815 181-485 limits assumed): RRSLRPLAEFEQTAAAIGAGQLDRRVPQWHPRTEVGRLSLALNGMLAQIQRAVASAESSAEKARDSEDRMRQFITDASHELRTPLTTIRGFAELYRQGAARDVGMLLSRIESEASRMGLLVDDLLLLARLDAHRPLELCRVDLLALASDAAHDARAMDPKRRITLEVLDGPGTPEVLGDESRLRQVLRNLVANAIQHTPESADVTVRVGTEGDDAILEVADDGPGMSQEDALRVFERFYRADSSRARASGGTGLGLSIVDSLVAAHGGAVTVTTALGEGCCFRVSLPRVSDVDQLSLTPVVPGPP
Test: radioactive dot-blot autophosphorylation assay
Assay type: biochemical
Details: read-out: % inhibition at 10 μM

Cc1c2oc3c(C)ccc(C(=O)N[C@@H]4C(=O)N[C@H](C(C)C)C(=O)N5CCC[C@H]5C(=O)N(C)CC(=O)N(C)[C@@H](C(C)C)C(=O)O[C@@H]4C)c3nc-2c(C(=O)N[C@@H]2C(=O)N[C@H](C(C)C)C(=O)N3CCC[C@H]3C(=O)N(C)CC(=O)N(C)[C@@H](C(C)C)C(=O)O[C@@H]2C)c(N)c1=O [Actinomycin D] (I: T[dV]P[Sar][NMeV] / II: T[dV]P[Sar][NMeV]; ester I:1-I:C, II:1-II:C; linker I:N-II:N via Actinocin(9to1)) was tested, and the inhibition at 10 µM was over 50%.
